Assay results taken from ChEMBL document CHEMBL4330078, “Discovery of potent Pan-Raf inhibitors with increased solubility to overcome drug resistance” (Eur J Med Chem, 2019).

Experiments:
[1] = Clearance in Sprague-Dawley rat at […], iv by LC-MS/MS analysis; type: ADME, organism-based; conditions: in vivo
[2] = Tmax in Sprague-Dawley rat at […], iv by LC-MS/MS analysis; type: ADME, organism-based; conditions: in vivo
[3] = AUC (0 to infinity) in Sprague-Dawley rat at 10 mg/kg, po by LC-MS/MS analysis; type: ADME, organism-based; parameters: dose 10 mg/kg, route oral, time infinity; conditions: in vivo
[4] = AUC (0 to t) in Sprague-Dawley rat at 10 mg/kg, po by LC-MS/MS analysis; type: ADME, organism-based; conditions: in vivo
[5] = AUC (0 to t) in Sprague-Dawley rat at […], iv by LC-MS/MS analysis; type: ADME, organism-based; conditions: in vivo
[6] = Volume of distribution at steady state in Sprague-Dawley rat at […], iv by LC-MS/MS analysis; type: ADME, organism-based; conditions: in vivo, read-out: Vdss
[7] = Half life in Sprague-Dawley rat at […], iv by LC-MS/MS analysis; type: ADME, organism-based; conditions: in vivo
[8] = Oral bioavailability in Sprague-Dawley rat at 10 mg/kg by LC-MS/MS analysis; type: ADME, organism-based; conditions: in vivo
[9] = Cmax in Sprague-Dawley rat at 10 mg/kg, po by LC-MS/MS analysis; type: ADME, organism-based; parameters: dose 10 mg/kg, route oral; conditions: in vivo
[10] = Cmax in Sprague-Dawley rat at […], iv by LC-MS/MS analysis; type: ADME, organism-based; parameters: dose 2.5 mg/kg, route intravenous; conditions: in vivo
[11] = Tmax in Sprague-Dawley rat at 10 mg/kg, po by LC-MS/MS analysis; type: ADME, organism-based; conditions: in vivo
[12] = Half life in human liver microsomes at 0.5 uM by LC-MS/MS analysis; type: ADME, Microsome
[13] = AUC (0 to infinity) in Sprague-Dawley rat at […], iv by LC-MS/MS analysis; type: ADME, organism-based; parameters: dose 2.5 mg/kg, time infinity, route intravenous; conditions: in vivo

clearance [1] [L/h/kg]	Tmax [2] [min]	AUC(0-inf) [3] [µg·h/mL]	AUC(0-t) [4] [µg·h/mL]	AUC(0-t) [5] [µg·h/mL]	Vd [6] [L/kg]	half-life [7] [h]	bioavailability [8] [%]	Cmax [9] [µg/mL]	Cmax [10] [µg/mL]	Tmax [11] [h]	half-life at 0.5 µM [12] [h]	AUC(0-inf) [13] [µg·h/mL]	SMILES
4.1	4.98	0.522	0.503	0.549	45.7	7.7	22.9	0.0721	0.273	4	6.5	0.607	Cc1ccc(C(=O)Nc2ccc(OCC3CCN(C)CC3)c(C(F)(F)F)c2)cc1NC(=O)C1(c2ncnc3[nH]ccc23)CC1
–	–	–	–	–	–	–	–	–	–	–	5.6	–	CNC(=O)c1cc(Oc2ccc(NC(=O)Nc3ccc(Cl)c(C(F)(F)F)c3)cc2)ccn1 [SORAFENIB]
